Assay results published in US20250282799A1, “SUBSTITUTED PYRIDO[4,3-d]PYRIMIDINES AS KRAS MODULATORS” (Alterome Therapeutics, Inc., priority 2023, published 2025).

What was measured:
[1] = tested on: KRAS G12V dependent lung adenocarcinoma cell line, NCI-H441; experiment: Cellular pERK (Thr202/Tyr204) FRET/HTRF assay; type: cell-based; conditions: Homo sapiens
Outline: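 NCI-H441, overnight plating → cpd 1 hr, 37 °C/5% CO2; DMSO neg ctrl. Lyse (phosphatase inhibitors), add donor/acceptor Abs, RT incubation, HTRF read. IC50 by curve fit.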

[2] = Pharmacokinetic evaluation, single dosing (oral and intravenous) in rats; type: in vivo, male Sprague-Dawley rats; set-up: unit not given here; conditions: rat, plasma
Method: Pharmacokinetic profile for test compound was measured by single dosing in male Sprague-Dawley rats. Animal weights were typically over 200 grams, and animals were allowed to acclimate to their new environment for at least 3 days prior to the initiation of any studies. One set of animals was dosed intravenous with test compound, 2 mg/kg in 20% PEG400, 10% HS-15 Solutol, 70% 50 mM citrate buffer (pH 4.0). Intravenous dosing solution concentration was 1.0 mg/mL. Time of blood sampling was 5 minutes, 15 minutes, 30 minutes, 1 hour, 2 hours, 4 hours, 8 hours, and 24 hours following intravenous dosing. Another set of animals was dosed orally with test compound, 30 mg/kg in 20% PEG400, 10% HS-15 Solutol, 70% 50 mM citrate buffer (pH 4.0). Oral dosing solution concentration was 3.0 mg/mL. Time of blood sampling was 15 minutes, 30 minutes, 1 hour, 2 hours, 4 hours, 8 hours, and 24 hours following oral dosing. Blood samples (˜0.2 mL/sample) were collected via jugular vein and placed in tubes containing Heparin-Na. The blood samples in tubes were mixed and then placed on wet ice prior to centrifugation for plasma. The blood samples were centrifuged at 4000 g for 5 minutes at 4° C. to obtain plasma. The obtained plasma was separated and stored frozen at approximately −80° C.
All the plasma samples were analyzed using a Shimadzu (DGU-405) HPLC with an API 6500+MS/MS system following the manufacturer's instructions. All the analytes were detected with positive-mode electrospray ionization (ES+). A standard curve for each test compound was generated and used to measure test compound concentrations in the rat plasma samples. Based on the time course sampling, an area under the curve (AUC) was calculated for the oral group and intravenous group. The percentage of rat bioavailability is calculated based on the equation shown below.
where F is bioavailability, AUCPO is area under curve of oral dosing, AUCIV is area under curve of intravenous dosing, DoseIV is the intravenous dose and DosePO is the oral dose. The oral dosing for the experiments presented in Table 5 was performed at 10 mg/kg unless noted otherwise.

KRAS (G12D)/CRAF = KRAS (G12D)/CRAF (Homo sapiens (Human), UniProt P01116, G12D); experiment: TR-FRET biochemical KRAS:CRAF protein:protein interaction assay, KRAS (G12D); type: binding; conditions: GMPPNP loaded Biotin-KRAS (G12D), FLAG CRAF RBD; read-out: TR-Fret_PPI KRAS (G12D)/CRAF IC50
Sequence of KRAS (G12D)/CRAF (P01116-2 other isoform, or with tags, fused parts or gaps G12D): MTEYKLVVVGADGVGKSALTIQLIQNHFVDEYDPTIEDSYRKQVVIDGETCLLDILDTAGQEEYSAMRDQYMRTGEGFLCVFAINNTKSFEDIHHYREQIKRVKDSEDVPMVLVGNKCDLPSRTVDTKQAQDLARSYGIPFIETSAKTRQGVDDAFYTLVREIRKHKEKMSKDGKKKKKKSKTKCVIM
Method: (§1) The effect of test compounds on KRAS and CRAF protein: protein interaction (PPI) was measured by time resolved fluorescence resonance energy transfer (TR-FRET) Ras binding domain (RBD) assay, which uses a signal generated through fluorescent resonance energy transfer between a donor and an acceptor molecule when in close proximity to each other. Interference from buffer, media, etc. is reduced by dual-wavelength detection; the energy pulse from the excitation source is followed by a time delay, which allows interfering short-lived fluorescence to decay (Degorce et al. 2009).
(§2) The KRAS: CRAF PPI assay can be utilized to identify KRAS ‘ON’ state inhibitors, as the KRAS protein is loaded with GMPPNP (a non-hydrolyzable GTP analog), which represents the active KRAS ‘ON’ state. FLAG-tagged CRAF RBD binding to the GMPPNP loaded biotin-tagged KRAS will result in a fluorescence energy transfer from the donor (Tb-anti-FLAG, emission 620 nm) to the acceptor (SA-XL665, emission 665 nm). Disruption of KRAS and CRAF binding will reduce the TR-FRET signal.
(§3) Test compound was dissolved in DMSO to create a 1 mM stock solution. A 45 μL volume of stock solution was transferred to a 384well polypropylene plate. A 3fold, 10point dilution was performed by transferring 15 μL of test compound solution into 30 μL of DMSO.
(§4) Assay buffer A was prepared with […] Hepes, pH7.3, 0.002% Tween 20, 0.1% BSA, […] NaCl, 5 mM MgCl2, and 10 uM GMP-PNP. 4× KRAS Solution was prepared with 80 nM of Biotin-KRAS (G12D/V), GMPPNP loaded or Biotin-KRAS (WT), GMPPNP loaded protein in assay buffer A. 4× Raf RBD Solution was prepared with 400 nM FLAG CRAF RBD in assay buffer A. 2× Detection Mixture was prepared with 2 nM Tb-anti-FLAG antibody and 10 nM and 10 nM SA-XL665 in assay buffer A.
(§5) A volume of 100 nL of 100× test compound working solution or DMSO vehicle control solution was dispensed to each well (duplicate for each concentration) of a 384-well ProxiPlate Plus assay plate. A volume of 2.5 μL of 4× KRAS Solution was added to each well of the assay plate for a final concentration of 20 nM Biotin-KRAS (G12D/V),GMPPNP loaded or 20 nM Biotin-KRAS (WT), GMPPNP. For low control, add 2.5 μL of assay buffer (no KRAS protein). Pre-incubate assay plate for 30 minutes at room temperature. Following pre-incubation of test compound or DMSO with Biotin-KRAS (G12D/V),GMPPNP loaded or Biotin-KRAS (WT),GMPPNP, a volume of 2.5 μL of 4× FLAG cRAF RBD Solution was added to each well of the assay plate for a final concentration of 100 nM FLAG CRAF RBD. The assay plate was subjected to centrifuge at 1000 rpm for 1 minute and pre-incubate assay plate for 150 minutes at room temperature. Following the pre-incubation with FLAG cRAF RBD, a volume of 5 μl of 2× Detection Mixture was added to each well of the assay plate for a final concentration of 1 nM Tb-anti-FLAG and 5 nM SA-XL665. The assay plate was centrifuged at 1000 rpm for 1 minute and incubated for 90 minutes at room temperature. TR-FRET signal was measured on a BioTek Synergy Neo2 microplate reader (excitation at 340 nm, emission at 665 nn and 620 nm).
(§6) TR-FRET ratios were calculated by dividing the acceptor emission value (665 nm) by the donor emission value (620 nm) for each sample.
(§7) Percent inhibition was calculated by multiplying the normalized TR-FRET ratio by 100, where TR-FRET ratio^HIGH was the TR-FRET ratio obtained from wells with 1% DMSO and complete reaction mixture, TR-FRET ratio^LOW was the ratio obtained from wells with 1% DMSO and reaction mixture without KRAS protein and TR-FRET ratio^SAMPLE was the TR-FRET ratio from wells with test compound and complete reaction mixture. The IC50 values were calculated from normalized TR-FRET ratios with the Levenberg-Marquardt 4 parameter fitting procedure.
(§8) This assay quantifies the interaction of a KRAS mutant protein (e.g., G12V) with the CRAF Ras-binding domain (RBD). […]

KRAS (G12V)/CRAF = KRAS (G12V)/CRAF (Homo sapiens (Human), UniProt P01116, G12V); experiment: TR-FRET biochemical KRAS:CRAF protein:protein interaction assay, KRAS (G12V); type: binding; conditions: GMPPNP loaded Biotin-KRAS (G12V), FLAG CRAF RBD; read-out: TR-Fret_PPI KRAS (G12V)/CRAF IC50
Sequence of KRAS (G12V)/CRAF (P01116-2 other isoform, or with tags, fused parts or gaps G12V): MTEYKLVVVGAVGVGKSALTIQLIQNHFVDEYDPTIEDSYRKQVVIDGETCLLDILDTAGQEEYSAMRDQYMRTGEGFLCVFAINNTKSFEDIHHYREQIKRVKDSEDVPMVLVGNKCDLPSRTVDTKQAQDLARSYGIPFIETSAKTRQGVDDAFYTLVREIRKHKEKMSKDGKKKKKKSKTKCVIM
Method: as §1, §2, §3, §4, §5, §6, §7, §8

[3] = NCI-H441, pERK HTRF, NCI-H441 cells (KRAS G12V)
[4] = NCI-H441, cellular pERK (Thr202/Tyr204) HTRF, NCI-H441 cells

Row | Compound | IC50 [1, 3] | IV (dose 2 mg/kg) (AUC/D) (h*mg/mL) [2] | PO (AUC/D) (h*mg/mL), dose 30 mg/kg ([2]; oral, dose 30 mg/kg) | IC50 [1, 4] | PO (dose 10 mg/kg) (AUC/D) (h*mg/mL) ([2]; oral) | IC50 (KRAS (G12D)/CRAF) | IC50 (KRAS (G12V)/CRAF)
1 | [2H]C([2H])([2H])Oc1c(F)ccc2cc(N)cc(-c3ncc4c(N5CCOC[C@H]6[C@H](F)[C@H]65)nc(OC([2H])([2H])[C@@]56CCCN5C[C@H](F)C6)nc4c3F)c12 [Example 90, 6-Fluoro-4-(8-fluoro-4-((1S,7S,8S)-8-fluoro-5-oxa-2-azabicyclo[5.1.0]octan-2-yl)-2-(((2R,7aS)-2-fluorotetrahydro-1H-pyrrolizin-7a(5H)-yl)methoxy-d2)pyrido[4,3-d]pyrimidin-7-yl)-5-(methoxy-d3)naphthalen-2-amine] | < 50 nM | 1086 | 352 |  |  |  | 
2 | [2H]C([2H])(Oc1nc(N2CCCC[C@H]3[C@H](F)[C@H]32)c2cnc(-c3cc(O)cc4ccc(F)c(C#C)c34)c(F)c2n1)[C@@]12CCCN1C[C@H](F)C2 [Example 216, 5-ethynyl-6-fluoro-4-(8-fluoro-4-((1S,7R,8S)-8-fluoro-2-azabicyclo[5.1.0]octan-2-yl)-2-(((2R,7aS)-2-fluorotetrahydro-1H-pyrrolizin-7a(5H)-yl)methoxy-d2)pyrido[4,3-d]pyrimidin-7-yl)naphthalen-2-ol] |  | 96 |  | < 50 nM | 0.0 |  | 
3 | [2H]C([2H])([2H])Oc1c(F)ccc2cc(N)cc(-c3ncc4c(N5CCCC[C@H]6[C@H](F)[C@H]65)nc(OC([2H])([2H])[C@@]56CCCN5C[C@H](F)C6)nc4c3F)c12 [Example 58, 6-Fluoro-4-(8-fluoro-4-((1S,7R,8S)-8-fluoro-2-azabicyclo[5.1.0]octan-2-yl)-2-(((2R,7aS)-2-fluorotetrahydro-1H-pyrrolizin-7a(5H)-yl)methoxy-d2)pyrido[4,3-d]pyrimidin-7-yl)-5-(methoxy-d3)naphthalen-2-amine] | < 50 nM | 1401 |  |  | 432 |  | 
4 | [2H]C([2H])(Oc1nc(N2CCOC[C@H]3[C@H](F)[C@H]32)c2cnc(-c3cc(O)cc4ccc(Cl)c(C#C)c34)c(F)c2n1)[C@@]12CCCN1C[C@H](F)C2 [Example 260, 6-chloro-5-ethynyl-4-(8-fluoro-4-((1S,7S,8S)-8-fluoro-5-oxa-2-azabicyclo[5.1.0]octan-2-yl)-2-(((2R,7aS)-2-fluorotetrahydro-1H-pyrrolizin-7a(5H)-yl)methoxy-d2)pyrido[4,3-d]pyrimidin-7-yl)naphthalen-2-ol] |  | 129 |  | < 50 nM | 0.4 |  | 
5 | [2H]C([2H])(Oc1nc(N2CCCO[C@H]3[C@H](F)[C@H]32)c2cnc(-c3cc(N)cc4cc(F)c(F)c(C#C)c34)c(F)c2n1)[C@@]12CCCN1C[C@H](F)C2 [Example 24, 5-Ethynyl-6,7-difluoro-4-(8-fluoro-4-((1R,7S,8R)-8-fluoro-2-oxa-6-azabicyclo[5.1.0]octan-6-yl)-2-(((2R,7aS)-2-fluorotetrahydro-1H-pyrrolizin-7a(5H)-yl)methoxy-d2)pyrido[4,3-d]pyrimidin-7-yl)naphthalen-2-amine] | < 50 nM | 405 |  |  | 35 |  | 
6 | [2H]C([2H])(Oc1nc(N2CCOC[C@H]3C[C@H]32)c2cnc(-c3cc(N)cc4cc(F)c(F)c(C#C)c34)c(F)c2n1)[C@@]12CCCN1C[C@H](F)C2 [Example 62, 4-(4-((1R,7S)-5-oxa-2-azabicyclo[5.1.0]octan-2-yl)-8-fluoro-2-(((2R,7aS)-2-fluorotetrahydro-1H-pyrrolizin-7a(5H)-yl)methoxy-d2)pyrido[4,3-d]pyrimidin-7-yl)-5-ethynyl-6,7-difluoronaphthalen-2-amine] | 50 to 500 nM |  |  |  |  | 62.6 nM | 443 nM
7 | [2H]C([2H])(Oc1nc(N2CCOC[C@@H]3[C@H](Cl)[C@@H]32)c2cnc(-c3cc(N)cc4ccc(F)c(C#C)c34)c(F)c2n1)[C@@]12CCCN1C[C@H](F)C2 [Example 250, 4-(4-((1R,7R,8S)-8-chloro-5-oxa-2-azabicyclo[5.1.0]octan-2-yl)-8-fluoro-2-(((2R,7aS)-2-fluorotetrahydro-1H-pyrrolizin-7a(5H)-yl)methoxy-d2)pyrido[4,3-d]pyrimidin-7-yl)-5-ethynyl-6-fluoronaphthalen-2-amine] |  |  |  | 50 to 500 nM |  | 1670 nM | 3000 nM
8 | [2H]C([2H])(Oc1nc(N2CC=CC[C@H]3[C@H](F)[C@H]32)c2cnc(-c3cc(N)cc4cc(F)c(F)c(C#C)c34)c(F)c2n1)[C@@]12CCCN1C[C@H](F)C2 [Example 137, 5-Ethynyl-6,7-difluoro-4-(8-fluoro-4-((1S,7R,8S)-8-fluoro-2-azabicyclo[5.1.0]oct-4-en-2-yl)-2-(((2R,7aS)-2-fluorotetrahydro-1H-pyrrolizin-7a(5H)-yl)methoxy-d2)pyrido[4,3-d]pyrimidin-7-yl)naphthalen-2-amine] |  |  |  | < 50 nM |  | 27.4 nM | 155 nM
